{"source": "patent US9034323B2", "about": "“Method for control of post-prandial glucose” (Halozyme, Inc., priority 2008, dated 2015)", "key": {"[1]": {"test_system": "dispersion of trypan blue dye", "assay": "Trypan blue dye dispersion assay in mice (Example 9)", "type": "in vivo, NCr nu/nu homozygous mice", "conditions": "for Dye Dispersion Areas: intradermal, trypan blue with 5 Units/mL Humulin insulin, enzyme 10 U/mL (Chondroitinase AC 1 U/mL, Strep lyase 100 U/mL), group mean; for increase in dye dispersion area compared to buffer only: mixed with trypan blue and Humulin insulin", "protocol": "(§1) The ability of different hyaluronan degrading enzymes to act as a dispersion agent was assessed in vivo. A dispersion assay in mice was used to assess the ability of different hyaluronan degrading enzyme to act as dispersion agents of trypan blue, and also to assess the ability of the enzymes to enhance the efficacy of co-administered insulin in reducing blood glucose levels. The hyaluronan degrading enzymes assayed included rHuPH20, pegylated PH20 (PEG PH20), Hyal 1, Chondroitinase ABC, Chondroitinase AC and Streptomyces hyalurolyticus lyase. […] Both the area of dispersion of the trypan blue and the blood glucose levels were then measured. […] The ability of a low pH buffer (pH 4.5) to act as a dispersion agent also was examined.\n(§2) Nine groups of NCr nu/nu homozygous mice, approximately 10 weeks of age and with body weights of 21-25 g, with 3 mice per group, were anesthetized by intraperitoneal injection of ketamine/xylazine (10:1 mixture in saline). […] The dispersion of the trypan blue dye was then measured by a caliper at 2.5, 5, 10, 15 and 20 minutes post injection. The dye dispersion area (mm^2) was calculated by multiplying the longest axis M1 (length of the dye front) and M2 (width of the dye front) by ¼π (M1M2×¼π). The blood glucose levels were measured using a glucometer at 0, 5, 10, 15 and 20 minutes"}, "blood glucose": {"test_system": "blood glucose", "assay": "Blood glucose levels in mice after intradermal Humulin insulin with hyaluronan degrading enzymes (Example 9)", "type": "in vivo, NCr nu/nu homozygous mice", "conditions": "for Blood Glucose Level: group mean", "protocol": "as §1, §2"}, "[2]": {"test_system": "plasma glucose (glucose infusion rate to maintain 90-110 mg/dL)", "assay": "Glucose infusion rate (GIR) pharmacodynamics, Hyperinsulinemic-Euglycemic Clamp (Example 1a)", "type": "in vivo, human", "conditions": "Mean", "method": "The procedure consisted of initially obtaining the subject's weight and height and measuring the vital signs after resting in a sitting position for 5 minutes. Both arms were placed in heating pads to dilate the veins and IV catheters were then inserted. A catheter was placed into the antecubital vein of one arm for infusion of Dextrose 20% via two separate stop cocks. The other […] catheter was placed into the other arm for sampling of arterialized blood for glucose measurements. The heating pad can be removed from the glucose infusion site, but the retrograde catheter site was maintained at 65° C. An initial blood sample was obtained to measure baseline glucose 30 minutes before injection of the insulin preparations."}, "[3]": {"parameters": "species or system Yucatan mini pigs", "conditions": "pig, in vivo; for tmax: sc", "method": "The pharmacokinetics (PK) of regular insulin, when subcutaneously administered at two different concentrations, both alone and co-administered with rHuPH20, was assessed in the porcine model described in Example 10, above. A multiple dose 4-way crossover design study was conducted to compare the PK of regular insulin at concentrations of 20 and 100 U/mL, when administered alone, to the same two concentrations after co-administration with rHuPH20. In each case, a total of 0.2 U/kg of insulin was administered.\nFour test articles were prepared for dosing. […] The Insulin-PH20 U100 test article contained 3.69 mg/mL (100 U/mL) regular insulin (Lot # SIHR107; Diosynth Biotechnologies) and 20 μg/mL (approximately 2400 U/mL) rHuPH20 in 25 mM Tris, 120 mM NaCl, 0.01% Polysorbate 80, pH 7.3.\nThe group assignment was maintained for cycles 1 and 2.\nThe serum IRI concentrations were determined for each serum sample by interpolation from a standard curve using StatLIA® assay analysis software (Brendan Technologies, Carlsbad, Calif.). […] These baselines were then subtracted from the actual IRI concentrations measured at each timepoint to determine the baseline-adjusted IRI concentration.\nSerum IRI versus time data were modeled by non-compartmental analysis using WinNonlin Professional model 200 (Version 5.2, Pharsight Corp., Mountain View, Calif.) and the PK parameters calculated. […] All analyses were performed using a mixed model with fixed effects for treatment. A compound symmetric covariance matrix among repeated observations for each animal was assumed. Analyses for Cmax and all AUC endpoints were performed using log-transformed values with values of zero replaced by 1 prior to log transformation (zero on the log scale). The time based endpoints were analyzed on the original linear scale.\nN=16 pigs unless otherwise noted."}, "[4]": {"conditions": "background, cited from earlier work"}, "[5]": {"conditions": "5 min post injection, intradermal with 5 Units/mL Humulin insulin, enzyme 10 U/mL (Chondroitinase AC 1 U/mL, Strep lyase 100 U/mL)"}, "[6]": {"conditions": "10 min post injection, intradermal with 5 Units/mL Humulin insulin, enzyme 10 U/mL (Chondroitinase AC 1 U/mL, Strep lyase 100 U/mL)"}, "[7]": {"conditions": "15 min post injection, intradermal with 5 Units/mL Humulin insulin, enzyme 10 U/mL (Chondroitinase AC 1 U/mL, Strep lyase 100 U/mL)"}, "[8]": {"conditions": "20 min post injection, intradermal with 5 Units/mL Humulin insulin, enzyme 10 U/mL (Chondroitinase AC 1 U/mL, Strep lyase 100 U/mL)"}}, "note": "Where two headings read alike, the source gives them in different places.", "data": [{"molecule": "Chondroitinase ABC", "values": [{"measurement": "Dye Dispersion Areas", "setting": "[1]; 5 min post injection", "result": 75.06, "unit": "mm^2"}, {"measurement": "average dispersion area of trypan blue dye", "setting": "[1]; 5 minutes after injection", "result": "~75", "unit": "mm^2"}, {"measurement": "Dye Dispersion Areas", "setting": "[1]; 10 min post injection", "result": 78.60, "unit": "mm^2"}, {"measurement": "average dispersion area of trypan blue dye", "setting": "[1]; 10 minutes after injection", "result": "~79", "unit": "mm^2"}, {"measurement": "Dye Dispersion Areas", "setting": "[1]; 15 min post injection", "result": 81.44, "unit": "mm^2"}, {"measurement": "average dispersion area of trypan blue dye", "setting": "[1]; 15 minutes after injection", "result": "~81", "unit": "mm^2"}, {"measurement": "Dye Dispersion Areas", "setting": "[1]; 20 min post injection", "result": 87.85, "unit": "mm^2"}, {"measurement": "average dispersion area of trypan blue dye", "setting": "[1]; 20 minutes after injection", "result": "~88", "unit": "mm^2"}, {"measurement": "average dispersion area of trypan blue dye", "setting": "[1]; […] after injection", "result": "about 57 mm^2"}, {"measurement": "Dye Dispersion Areas", "setting": "[1]; […] post injection", "result": 56.85, "unit": "mm^2"}, {"measurement": "increase in dye dispersion area compared to buffer only", "setting": "[1]", "result": "significant increase"}, {"measurement": "Blood Glucose Level", "setting": "blood glucose; 0 min (prior to injection)", "result": 129.67, "unit": "mg/dL"}, {"measurement": "Blood Glucose Level", "setting": "blood glucose; [5]", "result": 123.67, "unit": "mg/dL"}, {"measurement": "Blood Glucose Level", "setting": "blood glucose; [6]", "result": 65.00, "unit": "mg/dL"}, {"measurement": "Blood Glucose Level", "setting": "blood glucose; [7]", "result": 44.67, "unit": "mg/dL"}, {"measurement": "Blood Glucose Level", "setting": "blood glucose; [8]", "result": 21.00, "unit": "mg/dL"}, {"measurement": "reduction of blood glucose levels compared with Humulin insulin alone", "setting": "blood glucose; co-administered with Humulin insulin", "result": "appeared to reduce levels even faster"}]}, {"molecule": "Humalog ® alone", "values": [{"measurement": "GIR AUC 0-60 min", "setting": "[2]; Dosing Sequence 1", "result": 1910, "unit": "min * mL/hr"}, {"measurement": "GIR AUC 0-120 min", "setting": "[2]; Dosing Sequence 1", "result": 9860, "unit": "min * mL/hr"}, {"measurement": "GIR AUC 0-180 min", "setting": "[2]; Dosing Sequence 1", "result": 20700, "unit": "min * mL/hr"}, {"measurement": "GIR AUC 0-240 min", "setting": "[2]; Dosing Sequence 1", "result": 32580, "unit": "min * mL/hr"}, {"measurement": "GIR AUC 0-360 min", "setting": "[2]; Dosing Sequence 1", "result": 51650, "unit": "min * mL/hr"}, {"measurement": "tmax", "setting": "[2]; Dosing Sequence 1", "result": 185}, {"measurement": "GIR AUC 0-60 min", "setting": "[2]; Dosing Sequence 2", "result": 2260, "unit": "min * mL/hr"}, {"measurement": "GIR AUC 0-120 min", "setting": "[2]; Dosing Sequence 2", "result": 9670, "unit": "min * mL/hr"}, {"measurement": "GIR AUC 0-180 min", "setting": "[2]; Dosing Sequence 2", "result": 19220, "unit": "min * mL/hr"}, {"measurement": "GIR AUC 0-240 min", "setting": "[2]; Dosing Sequence 2", "result": 29120, "unit": "min * mL/hr"}, {"measurement": "GIR AUC 0-360 min", "setting": "[2]; Dosing Sequence 2", "result": 44730, "unit": "min * mL/hr"}, {"measurement": "tmax", "setting": "[2]; Dosing Sequence 2", "result": 200}, {"measurement": "GIR AUC 0-60 min", "setting": "[2]; Dosing Sequence all", "result": 2080, "unit": "min * mL/hr"}, {"measurement": "GIR AUC 0-120 min", "setting": "[2]; Dosing Sequence all", "result": 9760, "unit": "min * mL/hr"}, {"measurement": "GIR AUC 0-180 min", "setting": "[2]; Dosing Sequence all", "result": 19960, "unit": "min * mL/hr"}, {"measurement": "GIR AUC 0-240 min", "setting": "[2]; Dosing Sequence all", "result": 30850, "unit": "min * mL/hr"}, {"measurement": "GIR AUC 0-360 min", "setting": "[2]; Dosing Sequence all", "result": 48190, "unit": "min * mL/hr"}, {"measurement": "tmax", "setting": "[2]; Dosing Sequence all", "result": 193}]}, {"molecule": "Insulin 20 U", "values": [{"measurement": "tmax", "setting": "[3]", "result": "57 ± 42", "unit": "min"}]}, {"molecule": "Insulin 100 U", "values": [{"measurement": "tmax", "setting": "[3]", "result": "64 ± 49", "unit": "min"}]}, {"molecule": "Insulin U20: Humulin R insulin diluted 1:5 with sterile diluent to 20 U/mL", "values": [{"measurement": "AUC0-15", "setting": "[3]", "result": 80, "unit": "pmol·min/L"}, {"measurement": "AUC0-30", "setting": "[3]", "result": 791, "unit": "pmol·min/L"}, {"measurement": "AUClast", "setting": "[3]", "result": "20,820 pmol×min/L"}, {"measurement": "tmax", "setting": "[3]", "result": 57, "unit": "min"}]}, {"molecule": "Insulin U100: Undiluted Humulin R insulin, 100 U/mL", "values": [{"measurement": "AUC0-15", "setting": "[3]", "result": 20, "unit": "pmol·min/L"}, {"measurement": "AUC0-30", "setting": "[3]", "result": 222, "unit": "pmol·min/L"}, {"measurement": "AUClast", "setting": "[3]", "result": "9,021 pmol×min/L"}, {"measurement": "tmax", "setting": "[3]", "result": 64, "unit": "min"}]}, {"molecule": "detemir: Long-lasting insulin, an analog", "values": [{"measurement": "Duration", "setting": "[4]", "result": 28, "unit": "h"}, {"measurement": "Onset", "setting": "[4]", "result": "4 to 6", "unit": "h"}, {"measurement": "Peak", "setting": "[4]", "result": "18 to 28", "unit": "h"}]}, {"molecule": "insulin glargine", "values": [{"measurement": "Duration", "setting": "[4]", "result": 28, "unit": "h"}, {"measurement": "Onset", "setting": "[4]", "result": "4 to 6", "unit": "h"}, {"measurement": "Peak", "setting": "[4]", "result": "18 to 28", "unit": "h"}]}, {"molecule": "insulin glulisine", "values": [{"measurement": "Duration", "setting": "[4]", "result": "3 to 4", "unit": "h"}, {"measurement": "Peak", "setting": "[4]", "result": "0.75 to 1.5", "unit": "h"}, {"measurement": "Onset", "setting": "[4]; subcutaneous insulin", "result": "0.083 to 0.25", "unit": "h"}]}, {"molecule": "Hyal I (protein, UniProt Q12794 22-435, looked up) Hyaluronidase-1: FRGPLLPNRPFTTVWNANTQWCLERHGVDVDVSVFDVVANPGQTFRGPDMTIFYSSQLGTYPYYTPTGEPVFGGLPQNASLIAHLARTFQDILAAIPAPDFSGLAVIDWEAWRPRWAFNWDTKDIYRQRSRALVQAQHPDWPAPQVEAVAQDQFQGAARAWMAGTLQLGRALRPRGLWGFYGFPDCYNYDFLSPNYTGQCPSGIRAQNDQLGWLWGQSRALYPSIYMPAVLEGTGKSQMYVQHRVAEAFRVAVAAGDPNLPVLPYVQIFYDTTNHFLPLDELEHSLGESAAQGAAGVVLWVSWENTRTKESCQAIKEYMDTTLGPFILNVTSGALLCSQALCSGHGRCVRRTSHPKALLLLNPASFSIQLTPGGGPLSLRGALSLEDQAQMAVEFKCRCYPGWQAPWCERKSMW", "values": [{"measurement": "Dye Dispersion Areas", "setting": "[1]; 5 min post injection", "result": 36.27, "unit": "mm^2"}, {"measurement": "Dye Dispersion Areas", "setting": "[1]; 10 min post injection", "result": 39.60, "unit": "mm^2"}, {"measurement": "Dye Dispersion Areas", "setting": "[1]; 15 min post injection", "result": 46.41, "unit": "mm^2"}, {"measurement": "Dye Dispersion Areas", "setting": "[1]; 20 min post injection", "result": 48.21, "unit": "mm^2"}, {"measurement": "Dye Dispersion Areas", "setting": "[1]; […] post injection", "result": 31.53, "unit": "mm^2"}, {"measurement": "Blood Glucose Level", "setting": "blood glucose; 0 min (prior to injection)", "result": 155.67, "unit": "mg/dL"}, {"measurement": "Blood Glucose Level", "setting": "blood glucose; [5]", "result": 201.33, "unit": "mg/dL"}, {"measurement": "Blood Glucose Level", "setting": "blood glucose; [6]", "result": 144.33, "unit": "mg/dL"}, {"measurement": "Blood Glucose Level", "setting": "blood glucose; [7]", "result": 77.00, "unit": "mg/dL"}, {"measurement": "Blood Glucose Level", "setting": "blood glucose; [8]", "result": 52.67, "unit": "mg/dL"}]}, {"molecule": "Hyal 1: Hyaluronan degrading enzyme; acid-active human hyaluronidase (protein, listed as Homo sapiens, Hyaluronidase-1 [Precursor]) MAAHLLPICALFLTLLDMAQGFRGPLLPNRPFTTVWNANTQWCLERHGVDVDVSVFDVVANPGQTFRGPDMTIFYSSQLGTYPYYTPTGEPVFGGLPQNASLIAHLARTFQDILAAIPAPDFSGLAVIDWEAWRPRWAFNWDTKDIYRQRSRALVQAQHPDWPAPQVEAVAQDQFQGAARAWMAGTLQLGRALRPRGLWGFYGFPDCYNYDFLSPNYTGQCPSGIRAQNDQLGWLWGQSRALYPSIYMPAVLEGTGKSQMYVQHRVAEAFRVAVAAGDPNLPVLPYVQIFYDTTNHFLPLDELEHSLGESAAQGAAGVVLWVSWENTRTKESCQAIKEYMDTTLGPFILNVTSGALLCSQALCSGHGRCVRRTSHPKALLLLNPASFSIQLTPGGGPLSLRGALSLEDQAQMAVEFKCRCYPGWQAPWCERKSMW", "values": [{"measurement": "increase in dye dispersion area compared to buffer only", "setting": "[1]", "result": "no statistically significant increase"}]}]}
